Patent publication US20030181380A1, “Modulating lymphoid commitment and survival” (priority 2002, published 2003)
Blank lines part the entries; values can stand above or below the compound they belong to. Residues, ends and D or L forms follow the SMILES beside them. *: point of attachment. Cbz = O=C(OCc1ccccc1)*; CH2F = FC*

Assays:
[1] = system: JM-1 cells; assay: Tamoxifen-inducible ICN1 (ICN1-ER-BD) in JM-1 subclones: PI, AnnexinV, RT-PCR; assay type: cell-based, human; conditions: JM-1 subclones with tamoxifen-inducible ICN1
Description: To further characterize this effect, a retroviral vector containing a tamoxifen-inducible-ICN1 vector co-expressing GFP (ICN1+GFP) was stably transduced into three of the JM-1 human B-ALL leukemia/lymphoma′cell lines. To accomplish this, the estrogen receptor hormone-binding domain (ER-BD) was fused via a linker to ICN1. This fusion product was expressed on the MigR1 (MSCV-based) retroviral vector, which co-expresses GFP. JM-1 cells were transduced with this construct and subclones were selected for high expression. The GFP positive populations were sub cloned and individual clones expressing various levels of ICN1+GFP were analyzed after exposure to tamoxifen (FIG. 18A). Subclone JM-1.2 was exposed to tamoxifen and RT-PCR was performed (FIG. 18B). Growth arrest was shown by PI staining, apoptosis was measured by AnnexinV staining, and increased levels of Hairy expression were measured by RT-PCR. The percentage of non-GO/G1 cells was normalized to pre-treatment levels by duplicate experiments. The results of three experiments averaged ± standard deviation compared with EtOH control, and the average of duplicate experiments was relative to GAPDH expression and normalized to day 0 (pre-treatment) levels.
This effect was similar to the results seen with non-induced constructs.

[2] = system: V9 cells; assay: AnnexinV staining of ICN1-transduced V9 cells cultured with caspase inhibitor; assay type: cell-based, murine
Experimental: Apoptosis is frequently mediated by caspases, a family of cysteine proteases, whose activation leads to cell death. To further characterize the ICN1-induced cell death, ICN1-transduced V9 cells were cultured with either the general caspase inhibitor, zVAD (50 μM in DMSO), or DMSO alone (zVAD vehicle only), and analyzed 22 and 44 hours later (FIG. 3B). When cultured in control media (no zVAD), the great majority of GFP+ cells became AnnexinV positive by 22 hours post transduction, and few GFP positive cells remained at 44 hours (FIG. 3B, middle panel).
This may due to the incomplete inhibition of zVAD on the targeted caspases or, alternatively, caspase-independent pathways also contribute the B cell death.

[3] = target: Notch receptors on human B-ALL cell line JM-1; assay: cell-based or functional assay

Compound: CC/C(=C(\c1ccccc1)c1ccc(OCCN(C)C)cc1)c1ccccc1 [tamoxifen]
- cell cycle and apoptosis after induction [1]: cell cycle (growth) arrest and apoptosis

Compound: CC(NC(=O)C(NC(=O)OCc1ccccc1)C(C)C)C(=O)NC(CC(=O)O)C(=O)CF (stereo not drawn) [zVAD] (Cbz-Val-Ala-Asp-CH2F; configuration not given here)
- ICN1-transduced cells becoming AnnexinV positive ([2]; 50 μM zVAD, 22 hours): only a few
- protection of V9 cells from apoptosis ([2]; zVAD, up to 44 hours post-transduction): only partially protected

- Hairy expression in B-ALL cells by RT-PCR at 24 hours of co-culture [3]: 5 fold
Compound: human Jagged1 (from UniProt P78504 34-1218) (ligand)

- Hairy expression in B-ALL cells by RT-PCR at 24 hours of co-culture [3]: 5 fold
Compound: human Jagged2 (from UniProt Q9Y219 24-1238) (ligand)
